Earlier results, collected in article PMC11390726, “Automated design of multi-target ligands by generative deep learning” (Nature Communications, 2024).

Assays:
Set-up in all cases: method as in earlier work
AT1 = target: T1, AT1 (Homo sapiens, UniProt P30556); settings: fine-tuning set; BindingDB; read-out: potency on target (IC50 for AT1); cited from earlier work
T1 construct: expressed in transfected cells
T1 sequence (P30556 1-359): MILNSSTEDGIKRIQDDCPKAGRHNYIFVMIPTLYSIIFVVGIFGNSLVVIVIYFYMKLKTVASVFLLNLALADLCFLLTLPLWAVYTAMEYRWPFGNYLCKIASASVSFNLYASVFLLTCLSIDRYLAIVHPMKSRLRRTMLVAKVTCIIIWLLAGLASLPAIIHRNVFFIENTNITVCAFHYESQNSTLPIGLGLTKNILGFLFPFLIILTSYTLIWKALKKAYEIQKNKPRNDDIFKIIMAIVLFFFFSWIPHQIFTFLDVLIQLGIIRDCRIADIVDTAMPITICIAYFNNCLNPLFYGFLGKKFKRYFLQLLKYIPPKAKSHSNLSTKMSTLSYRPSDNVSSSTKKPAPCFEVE

PPARδ = settings: fine-tuning set; BindingDB; read-out: potency on target (EC50 for PPARδ); cited from earlier work
THRβ = settings: fine-tuning set; BindingDB; read-out: potency on target (EC50 for THRβ); cited from earlier work

| SMILES | IC50 (AT1) [nM] | EC50 (PPARδ) [nM] | other results |
| --- | --- | --- | --- |
| COc1ccc2c(c1OCc1ccccc1)CC(C(=O)O)N(C(=O)C(c1ccccc1)c1ccccc1)C2 (stereo not shown) | 1000 |  |  |
| CCCCc1ncc(/C=C(\Cc2cccs2)C(=O)O)n1Cc1ccc(C(=O)O)cc1 | 2 |  |  |
| CCO[C@H](COc1ccc(C(F)(F)F)cc1)CSc1ccc(OCC(=O)O)c(C)c1 |  | 2 |  |
| CCCCc1cnc(C(=O)O)n1Cc1ccc(-c2ccccc2C)cc1 | 3 |  |  |
| CC(C)c1onc(-c2c(Cl)cccc2Cl)c1COc1ccc(CNc2ccc(CC(=O)O)cc2)c(Cl)c1 |  | 2000 |  |
| O=C(O)Cc1cc(Cl)c(Oc2ccc(O)c(C(=O)NCC(c3ccccc3)c3ccccc3)c2)c(Cl)c1 |  |  | EC50 (THRβ): 0.5 nM |
